Columns and labels:
[1] = test system: Phakopsora pachyrhizi (F129L); experiment: Protective control of soybean rust on soybeans (PHAKPA P6); format: in vivo; details: for % PHAKPA (F129L) Disease level P6 at 4 ppm: protective P6, 4 ppm; for % PHAKPA (F129L) Disease level P6 at 4 ppm / % PHAKPA (F129L) Disease level P6 at 16 ppm: soybean rust F129L; for % PHAKPA (F129L) Disease level P6 at 16 ppm: protective P6, 16 ppm
[2] = test system: Phakopsora pachyrhizi (F129L); experiment: Protective control of soybean rust on soybeans (PHAKPA P2); format: in vivo; details: for % PHAKPA (F129L) Disease level P2 at 4 ppm: protective P2, 4 ppm; for % PHAKPA (F129L) Disease level P2 at 4 ppm / % PHAKPA (F129L) Disease level P2 at 16 ppm: soybean rust F129L; for % PHAKPA (F129L) Disease level P2 at 16 ppm: protective P2, 16 ppm
[3] = P6 protective, % diseased leaf area
[4] = P2 protective, % diseased leaf area

SMILES	% PHAKPA (F129L) Disease level P6 at 4 ppm [1] [%]	% PHAKPA (F129L) Disease level P6 at 16 ppm [1] [%]	% PHAKPA (F129L) Disease level P2 at 4 ppm [2] [%]	% PHAKPA (F129L) Disease level P2 at 16 ppm [2] [%]	PHAKPA (F129L) Disease level (%) P6 at 16 ppm [1, 3] [%]	PHAKPA (F129L) Disease level (%) P2 at 16 ppm [2, 4] [%]	PHAKPA (F129L) Disease level (%) P6 at 4 ppm ([1]; P6 protective, 4 ppm, % diseased leaf area) [%]	PHAKPA (F129L) Disease level (%) P2 at 4 ppm ([2]; P2 protective, 4 ppm, % diseased leaf area) [%]
CNC(=O)/C(=N/OC)c1cccc(C)c1CO/N=C(\C)c1ccccc1F [Ex. 2, (2E)-2-[2-[[(E)-1-(2-fluorophenyl)ethylideneamino]oxymethyl]-3-methyl-phenyl]-2-methoxyimino-N-methyl-acetamide]	26	1	5	0	–	–	–	–
C#Cc1cc(C#C)cc(/C(C)=N/OCc2c(C)cccc2/C(=N\OC)C(=O)NC)c1 [compound 193]	14	0	15	0	–	–	–	–
CNC(=O)/C(=N/OC)c1cccc(C)c1CO/N=C(\C)c1ccc(C(F)(F)F)cc1 [compound 39]	15	2	30	4	–	–	–	–
CNC(=O)/C(=N/OC)c1cccc(C)c1CO/N=C(\C(C)=O)c1cccc(C(F)(F)F)c1 [compound 93]	43	37	83	32	–	–	–	–
CNC(=O)/C(=N/OC)c1cccc(C)c1CO/N=C(\C)c1ccc(C)c(Cl)c1 [compound 109]	12	0	8	1	–	–	–	–
CO/N=C(/C(=O)OC)c1cccc(C)c1CO/N=C(\C)c1ccc(-c2cc(C)on2)cc1 [compound 63]	93	77	90	77	–	–	–	–
CNC(=O)/C(=N/OC)c1cccc(C)c1CO/N=C(\C)c1c(Cl)cccc1C(F)(F)F [compound 290]	83	21	92	14	–	–	–	–
CNC(=O)/C(=N/OC)c1cccc(C)c1CO/N=C(\C)c1ccccc1C(F)(F)F [compound 38]	47	1	37	4	–	–	–	–
CNC(=O)/C(=N/OC)c1cccc(C)c1CO/N=C(\C)c1cccc(CC2COC2)c1 [compound 161]	100	90	100	100	–	–	–	–
CO/N=C(/C(=O)OC)c1cccc(C)c1CO/N=C(\C)c1ccccc1Cl [compound 116]	85	67	85	57	–	–	–	–
CNC(=O)/C(=N/OC)c1cccc(C)c1CO/N=C(\C)c1ccccc1Cl [compound 128]	77	2	32	2	–	–	–	–
CO/N=C(/C(=O)OC)c1cccc(C)c1CO/N=C(\C)c1ccc(OC)cc1C(F)(F)F [compound 328]	23	5	33	8	–	–	–	–
CNC(=O)/C(=N/OC)c1cccc(C)c1CO/N=C(\C)c1ccc(F)cc1Cl [compound 262]	47	4	63	1	–	–	–	–
CO/N=C(/C(=O)OC)c1cccc(C)c1CO/N=C(\C)c1ccc(F)cc1 [compound 103]	35	4	40	3	–	–	–	–
CNC(=O)/C(=N/OC)c1cccc(C)c1CO/N=C(\C)c1ccc(C#N)cc1C(F)(F)F [compound 424]	97	50	100	27	–	–	–	–
CNC(=O)/C(=N/OC)c1cccc(C)c1CO/N=C(\C)c1ccccc1C1CC1(F)F (centres unmarked) [compound 288]	97	20	87	30	–	–	–	–
CNC(=O)/C(=N/OC)c1cccc(C)c1CO/N=C(/c1ccccc1)C(C)C [compound 389]	43	3	28	4	–	–	–	–
CO/N=C(/C(=O)OC)c1cccc(C)c1CO/N=C(\C)c1c(F)cccc1C(F)(F)F [compound 365]	97	43	77	15	–	–	–	–
CO/N=C(/C(=O)OC)c1cccc(C)c1CO/N=C(\C)c1cccc(Br)c1 [Ex. 56]	67	19	43	24	15	32	–	–
CNC(=O)/C(=N/OC)c1cccc(C)c1CO/N=C(\C)c1cc(F)c(F)cc1CC(F)(F)F [compound 406]	67	23	97	30	–	–	–	–
CO/N=C(/C(=O)OC)c1cccc(C)c1CO/N=C(\C)c1c(F)cc(F)cc1F [compound 169]	77	0	77	0	–	–	–	–
CC/C(=N\OCc1c(C)cccc1/C(=N\OC)C(=O)OC)c1cccc(C(F)(F)F)c1 [compound 204]	80	5	50	4	–	–	–	–
CO/N=C(/C(=O)OC)c1cccc(C)c1CO/N=C(\C)c1cccc(-c2ccccc2)c1 [compound 97]	1	0	4	1	–	–	–	–
CC/C(=N\OCc1c(C)cccc1/C(=N\OC)C(=O)NC)c1ccccc1 [compound 294]	2	0	1	1	–	–	–	–
CO/N=C(/C(=O)OC)c1cccc(C)c1CO/N=C(\C)c1cccc(Br)c1F [compound 134]	22	7	37	10	–	–	–	–
CO/N=C(/C(=O)OC)c1cccc(C)c1CO/N=C(/c1ccccc1)C(F)F [compound 72]	93	80	100	87	–	–	–	–
CNC(=O)/C(=N/OC)c1cccc(C)c1CO/N=C(\C)c1c(F)cc(F)cc1C(F)(F)F [compound 357]	18	0	13	1	–	–	–	–
CO/N=C(/C(=O)OC)c1ccccc1CO/N=C(\C)c1cccc(C(F)(F)F)c1 [Trifloxystrobin, trifloxystrobin, reference compound]	–	–	–	–	33	17	79	71
CNC(=O)/C(=N/OC)c1ccccc1CO/N=C(\C)c1ccc(-c2ccccc2)cc1 [reference compound]	–	–	–	–	28	37	–	–

Reference: patent publication US20230172204A1 (BASF SE, priority 2020, published 2023)
